Patent US20250034216A1, “STEREOSELECTIVE COVALENT LIGANDS FOR ONCOGENIC AND IMMUNOLOGICAL PROTEINS” (The Scripps Research Institute, priority 2021, published 2025)

Legend:
Test in all cases: IA-DTB cysteine engagement
Assay type in all cases: binding
[1] = molecular target: T1, CRYBG1_C1574 (Homo sapiens, UniProt Q9Y4K1); conditions: 22Rv1 cells, 20 μM probe, 1 h, relative to DMSO
T1 construct: endogenous in cells; host or cells: 22Rv1
Procedure, shortened: (§1)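 First, cells are exposed to electrophilic probes in situ. Next, lysates are labeled with IA-DTB (1 h, ambient temperature), reduced, alkylated and trypsin-digested. Then, IA-DTB peptides are enriched on streptavidin, TMT-labeled and analyzed, with ratios taken against DMSO channels.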

[2] = molecular target: T2, HMOX2_C282 (Homo sapiens, UniProt P30519); conditions: 22Rv1 cells, relative to DMSO; for % engagement HMOX2_C282: 20 μM probe, 1 h; for % engagement HMOX2_282: 5 μM probe, 1 h (FIG. 5B)
T2 construct: endogenous in cells; host or cells: 22Rv1
T2 sequence (P30519 1-316): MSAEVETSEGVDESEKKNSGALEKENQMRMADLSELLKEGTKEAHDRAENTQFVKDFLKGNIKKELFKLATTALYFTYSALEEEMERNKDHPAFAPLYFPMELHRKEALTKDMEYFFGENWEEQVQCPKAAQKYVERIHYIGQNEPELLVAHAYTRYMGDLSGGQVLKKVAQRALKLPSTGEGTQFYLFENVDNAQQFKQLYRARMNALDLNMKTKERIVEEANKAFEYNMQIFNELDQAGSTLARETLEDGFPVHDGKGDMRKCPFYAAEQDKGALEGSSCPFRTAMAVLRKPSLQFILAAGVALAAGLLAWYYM
Procedure, shortened: as §1

[3] = molecular target: T3, HNRNPLL_C235 (Homo sapiens, UniProt Q8WVV9); conditions: 22Rv1 cells, 20 μM probe, 1 h, relative to DMSO
T3 construct: endogenous in cells; host or cells: 22Rv1
T3 sequence (Q8WVV9 1-542): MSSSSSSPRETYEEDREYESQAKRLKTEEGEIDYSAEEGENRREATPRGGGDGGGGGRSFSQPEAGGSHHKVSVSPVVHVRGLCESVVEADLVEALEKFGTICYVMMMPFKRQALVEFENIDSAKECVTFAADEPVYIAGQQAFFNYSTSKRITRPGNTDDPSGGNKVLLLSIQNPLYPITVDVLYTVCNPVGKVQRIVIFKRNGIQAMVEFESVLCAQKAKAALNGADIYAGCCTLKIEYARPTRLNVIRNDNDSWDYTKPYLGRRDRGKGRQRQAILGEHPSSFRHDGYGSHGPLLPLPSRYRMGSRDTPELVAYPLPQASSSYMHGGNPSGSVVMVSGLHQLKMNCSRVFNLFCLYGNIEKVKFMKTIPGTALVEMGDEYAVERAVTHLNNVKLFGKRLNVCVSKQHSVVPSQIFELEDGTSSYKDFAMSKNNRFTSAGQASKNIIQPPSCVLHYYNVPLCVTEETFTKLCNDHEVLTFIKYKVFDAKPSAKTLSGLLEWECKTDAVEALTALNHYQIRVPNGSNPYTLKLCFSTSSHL
Procedure, shortened: as §1

[4] = molecular target: T4, NUDT8_C207 (Homo sapiens, UniProt Q8WV74); conditions: 22Rv1 cells, 20 μM probe, 1 h, relative to DMSO
T4 construct: endogenous in cells; host or cells: 22Rv1
T4 sequence (Q8WV74 1-236): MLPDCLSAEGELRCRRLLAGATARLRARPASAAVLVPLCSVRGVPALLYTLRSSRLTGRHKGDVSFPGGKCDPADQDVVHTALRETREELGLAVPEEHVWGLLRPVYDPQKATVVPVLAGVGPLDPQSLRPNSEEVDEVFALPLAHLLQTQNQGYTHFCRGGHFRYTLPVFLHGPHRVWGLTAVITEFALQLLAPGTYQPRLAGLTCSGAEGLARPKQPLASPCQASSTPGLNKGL
Procedure, shortened: as §1

[5] = molecular target: T5, OCIAD1_C98 (Homo sapiens, UniProt Q9NX40); conditions: 22Rv1 cells, 20 μM probe, 1 h, relative to DMSO
T5 construct: endogenous in cells; host or cells: 22Rv1
T5 sequence (Q9NX40 1-245): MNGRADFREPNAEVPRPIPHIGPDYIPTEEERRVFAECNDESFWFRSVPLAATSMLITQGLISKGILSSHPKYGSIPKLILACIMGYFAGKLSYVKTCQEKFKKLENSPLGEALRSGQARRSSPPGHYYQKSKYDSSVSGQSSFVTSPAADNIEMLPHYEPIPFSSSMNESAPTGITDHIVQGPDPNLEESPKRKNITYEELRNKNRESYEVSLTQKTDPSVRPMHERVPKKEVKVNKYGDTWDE
Procedure, shortened: as §1

T1 sequence (Q9Y4K1 whole entry): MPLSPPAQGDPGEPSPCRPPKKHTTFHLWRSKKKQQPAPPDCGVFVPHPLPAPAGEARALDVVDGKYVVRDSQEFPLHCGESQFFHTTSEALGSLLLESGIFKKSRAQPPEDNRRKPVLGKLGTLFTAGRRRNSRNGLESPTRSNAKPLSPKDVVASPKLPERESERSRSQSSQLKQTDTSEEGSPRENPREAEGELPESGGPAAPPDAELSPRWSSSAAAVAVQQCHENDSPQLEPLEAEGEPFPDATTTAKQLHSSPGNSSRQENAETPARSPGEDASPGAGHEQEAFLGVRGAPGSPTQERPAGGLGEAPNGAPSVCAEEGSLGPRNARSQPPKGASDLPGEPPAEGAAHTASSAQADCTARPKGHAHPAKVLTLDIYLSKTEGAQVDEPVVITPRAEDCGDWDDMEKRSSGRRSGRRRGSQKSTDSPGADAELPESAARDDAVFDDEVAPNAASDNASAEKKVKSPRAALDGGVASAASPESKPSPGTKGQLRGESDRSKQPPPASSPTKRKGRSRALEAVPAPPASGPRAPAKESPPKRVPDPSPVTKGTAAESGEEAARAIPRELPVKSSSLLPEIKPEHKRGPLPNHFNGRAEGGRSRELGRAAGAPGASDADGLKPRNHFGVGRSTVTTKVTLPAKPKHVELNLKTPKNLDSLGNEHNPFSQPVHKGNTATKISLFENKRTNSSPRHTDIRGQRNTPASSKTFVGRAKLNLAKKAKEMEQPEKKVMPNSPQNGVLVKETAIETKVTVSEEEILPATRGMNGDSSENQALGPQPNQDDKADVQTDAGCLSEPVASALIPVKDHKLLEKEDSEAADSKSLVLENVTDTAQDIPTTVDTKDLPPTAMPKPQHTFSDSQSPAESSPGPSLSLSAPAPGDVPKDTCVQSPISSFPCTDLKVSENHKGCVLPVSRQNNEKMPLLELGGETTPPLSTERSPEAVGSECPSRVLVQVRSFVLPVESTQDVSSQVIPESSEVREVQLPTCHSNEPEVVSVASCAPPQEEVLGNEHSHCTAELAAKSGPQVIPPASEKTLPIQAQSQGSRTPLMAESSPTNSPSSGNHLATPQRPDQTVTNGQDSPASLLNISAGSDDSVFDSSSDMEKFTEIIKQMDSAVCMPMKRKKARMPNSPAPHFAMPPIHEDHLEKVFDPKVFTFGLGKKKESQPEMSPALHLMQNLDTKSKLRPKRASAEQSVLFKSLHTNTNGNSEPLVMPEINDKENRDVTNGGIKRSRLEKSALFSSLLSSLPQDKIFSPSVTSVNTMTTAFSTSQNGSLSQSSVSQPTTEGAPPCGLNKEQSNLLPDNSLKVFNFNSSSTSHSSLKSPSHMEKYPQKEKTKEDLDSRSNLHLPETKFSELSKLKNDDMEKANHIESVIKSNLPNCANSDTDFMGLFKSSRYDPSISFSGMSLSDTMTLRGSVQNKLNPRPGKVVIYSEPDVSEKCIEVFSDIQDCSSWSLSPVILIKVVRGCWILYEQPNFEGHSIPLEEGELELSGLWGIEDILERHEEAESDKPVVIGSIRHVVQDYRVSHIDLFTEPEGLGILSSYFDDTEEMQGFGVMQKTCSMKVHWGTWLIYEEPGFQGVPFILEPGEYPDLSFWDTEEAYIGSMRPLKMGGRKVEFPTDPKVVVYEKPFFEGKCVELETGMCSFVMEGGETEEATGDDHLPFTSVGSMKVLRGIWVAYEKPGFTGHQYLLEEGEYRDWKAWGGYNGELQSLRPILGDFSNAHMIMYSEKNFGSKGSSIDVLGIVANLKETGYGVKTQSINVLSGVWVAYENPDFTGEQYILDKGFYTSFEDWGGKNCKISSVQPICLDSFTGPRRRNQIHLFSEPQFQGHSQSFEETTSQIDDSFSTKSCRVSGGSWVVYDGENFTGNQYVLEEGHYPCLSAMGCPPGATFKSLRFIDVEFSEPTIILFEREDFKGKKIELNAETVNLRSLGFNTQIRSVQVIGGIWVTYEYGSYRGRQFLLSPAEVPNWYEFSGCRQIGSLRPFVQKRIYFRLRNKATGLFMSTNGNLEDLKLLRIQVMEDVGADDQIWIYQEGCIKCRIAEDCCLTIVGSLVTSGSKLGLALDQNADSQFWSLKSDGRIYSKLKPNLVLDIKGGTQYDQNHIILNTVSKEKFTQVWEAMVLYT

| Compound | % engagement CRYBG1_C1574 [1] | % engagement HMOX2_C282 [2] | % engagement HNRNPLL_C235 [3] | % engagement NUDT8_C207 [4] | % engagement OCIAD1_C98 [5] | % engagement HMOX2_282 [2] |
| --- | --- | --- | --- | --- | --- | --- |
| C=CC(=O)N1C[C@@H](c2ccc(Br)cc2)[C@H]1C(=O)Nc1cccc2cccnc12 [MY-1A, (2S,3R)-1-acryloyl-3-(4-bromophenyl)-N-(quinolin-8-yl)azetidine-2-carboxamide] | 23% | 93.5% | 15% | 71.5% | 26% | – |
| C=CC(=O)N1C[C@H](c2ccc(Br)cc2)[C@@H]1C(=O)Nc1cccc2cccnc12 [MY-1B, (2R,3S)-1-acryloyl-3-(4-bromophenyl)-N-(quinolin-8-yl)azetidine-2-carboxamide] | 72% | 96.25% | 34% | 78.5% | 19% | 94.00% |
| C=CC(=O)N1C[C@H](c2ccc(Br)cc2)[C@H]1C(=O)Nc1cccc2cccnc12 [MY-3A, (2S,3S)-1-acryloyl-3-(4-bromophenyl)-N-(quinolin-8-yl)azetidine-2-carboxamide] | 28.5% | 96.25% | −7.5% | 64.25% | 12.5% | – |
| C=CC(=O)N1C[C@H](c2ccc(Br)cc2)[C@H]1C(=O)Nc1cccc2cccnc12 [MY-3B, (2S,3S)-1-acryloyl-3-(4-bromophenyl)-N-(quinolin-8-yl)azetidine-2-carboxamide] | 13.5% | 97.75% | 75% | 88.75% | 72.5% | – |
| CC#CC(=O)N1C[C@H](c2ccc(Br)cc2)[C@@H]1C(=O)Nc1cccc2cccnc12 [MY-45B, (2R,3S)-3-(4-bromophenyl)-1-(but-2-ynoyl)-N-(quinolin-8-yl)azetidine-2-carboxamide] | – | – | – | – | – | 92.13% |
